Patent US20230184744A1, “INTERTUMORAL HOMOGENEITY DETERMINED BY MiCK ASSAY” (Pierian Biosciences, LLC, priority 2014, published 2023)

Legend:
[1] = test system: NSCLC, multi-focal, recurrent adenocarcinoma (lymph node); test: MiCK assay, drug-induced apoptosis, Table 3 tumor D2; format: cell-based, human; details: Table 3 tumor D2: NSCLC, multi-focal, recurrent adenocarcinoma (lymph node); 48 hours with drug
Source text: (§1) Data were obtained optically using Mie light-scattering.
(§2) Do a test well. […] Look at the well under the inverted microscope. […] Repeat until optimal cell concentration is found. Plate the cells into the wells.

[2] = test system: NSCLC, multi-focal adenocarcinoma (site B); test: MiCK assay, drug-induced apoptosis, Table 3 tumor E2; format: cell-based, human; details: Table 3 tumor E2: NSCLC, multi-focal adenocarcinoma (site B); 48 hours with drug
Source text: as §1, §2

[3] = test system: NSCLC, bilateral well-differentiated adenocarcinoma (site 1B); test: MiCK assay, drug-induced apoptosis, Table 3 tumor B2; format: cell-based, human; details: Table 3 tumor B2: NSCLC, bilateral well-differentiated adenocarcinoma (site 1B); 48 hours with drug
Source text: as §1, §2

[4] = test system: Pancreatic islet cell cancer (primary tumor); test: MiCK assay, drug-induced apoptosis, Table 4 tumor A2; details: 48 hours with drug
Method: (§4) After overnight incubation, chemotherapy drugs were added to the wells of the 96-well plate in 5 μL aliquots or to the wells of a 384-well plate in 2.5 μL aliquots using an automated pipettor. The number of drugs or drug combinations and the number of concentrations tested depended on the number of viable malignant cells that were isolated from the tumor specimen. The drug concentrations, determined by molarity, were those indicated by the manufacturer as the desired blood level concentration plus or minus one serial dilution if enough cells were available.
(§5) Following drug addition, the plate was incubated for 30 min. at 37° C. in a 5% carbon dioxide humidified atmosphere incubator. Each well was then overlayed with sterile mineral oil, and the plate was placed into the incubator chamber of a microplate spectrophotometric reader. The optical density at 600 nanometers was read and recorded every 5 minutes over a period of 48 hours. Optical density increases, which correlates with apoptosis, were converted to kinetic units (KU) of apoptosis by a proprietary software ProApo with a formula described in the Kravtsov reference incorporated by reference (i.e. Kravtsov V. et al. “Use of the Microculture Kinetic Assay of apoptosis to determine chemosensitivities of leukemias.” Blood 1998; 92:968-980).
(§6) Purified tumor cells were cultured for 48 hours with individual drugs, and drug-induced apoptosis was measured using the MiCK assay as described in Example 1. Data were obtained optically using Mie light-scattering.

[5] = test system: NSCLC, multi-focal, recurrent adenocarcinoma (right lung); test: MiCK assay, drug-induced apoptosis, Table 3 tumor D1; format: cell-based, human; details: Table 3 tumor D1: NSCLC, multi-focal, recurrent adenocarcinoma (right lung); 48 hours with drug
Source text: as §1, §2

[6] = test system: Probable mesothelioma (pleural effusion); test: MiCK assay, drug-induced apoptosis, Table 3 tumor A2; format: cell-based, human; details: Table 3 tumor A2: Probable mesothelioma (pleural effusion); 48 hours with drug
Method: as §1
When the optimal cell concentration is reached, put the cells in the plate and incubate overnight in the incubating chamber of the incubator (37° C.).

[7] = test system: NSCLC, multi-focal adenocarcinoma (site A); test: MiCK assay, drug-induced apoptosis, Table 3 tumor E1; format: cell-based, human; details: Table 3 tumor E1: NSCLC, multi-focal adenocarcinoma (site A); 48 hours with drug
Source text: as §1, §2

[8] = test system: NSCLC, multi-focal, recurrent adenocarcinoma (site B); test: MiCK assay, drug-induced apoptosis, Table 3 tumor C2; format: cell-based, human; details: Table 3 tumor C2: NSCLC, multi-focal, recurrent adenocarcinoma (site B); 48 hours with drug
Source text: as §1, §2

[9] = test system: NSCLC, bilateral well-differentiated adenocarcinoma (site 1A); test: MiCK assay, drug-induced apoptosis, Table 3 tumor B1; format: cell-based, human; details: Table 3 tumor B1: NSCLC, bilateral well-differentiated adenocarcinoma (site 1A); 48 hours with drug
Source text: as §1, §2

[10] = test system: Lung adenocarcinoma (pleural effusion); test: MiCK assay, drug-induced apoptosis, Table 4 tumor B1; format: cell-based, human; details: Table 4 tumor B1: Lung adenocarcinoma (pleural effusion); 48 hours with drug
Source text: as §1
(§3) Patients: Three patients were included in this study. […] Patient A was diagnosed with pancreatic islet cell cancer; sample 1 was collected from lymph node and sample 2 was collected from the primary tumor. Patient B was diagnosed with lung cancer NSCLC adenocarcinoma; sample 1 was collected from pleural effusion and sample 2 was collected from solid tumor. […] Ages of the patients ranged from 51-79 years old with an average age of 65 years. One patient was […] and two were female.

[11] = test system: Lung adenocarcinoma (site B); test: MiCK assay, drug-induced apoptosis, Table 4 tumor C2; details: Table 4 tumor C2: Lung adenocarcinoma (site B); 48 hours with drug
Method: as §4, §5, §6

[12] = test system: Pancreatic islet cell cancer (lymph node); test: MiCK assay, drug-induced apoptosis, Table 4 tumor A1; details: Table 4 tumor A1: Pancreatic islet cell cancer (lymph node); 48 hours with drug
Method: as §4
(§7) Following drug addition, the plate was incubated for 30 min. at 37° C. in a 5% carbon dioxide humidified atmosphere incubator. Each well was then overlayed with sterile mineral oil, and the plate was placed into the incubator chamber of a microplate spectrophotometric reader. The optical density at 600 nanometers was read and recorded every 5 minutes over a period of 48 hours.
(§8) Patients: Three patients were included in this study. Two tumor samples from different tumor sites were collected from each patient. Both samples from each patient were collected on the same day.

[13] = test system: NSCLC, multi-focal, recurrent adenocarcinoma (site A); test: MiCK assay, drug-induced apoptosis, Table 3 tumor C1; format: cell-based, human; details: Table 3 tumor C1: NSCLC, multi-focal, recurrent adenocarcinoma (site A); 48 hours with drug
Source text: as §1, §2

[14] = test system: Lung small cell carcinoma (site A); test: MiCK assay, drug-induced apoptosis, Table 4 tumor C1; details: Table 4 tumor C1: Lung small cell carcinoma (site A); 48 hours with drug
Method: as §4, §7, §8

[15] = test system: Lung adenocarcinoma (solid tumor); test: MiCK assay, drug-induced apoptosis, Table 4 tumor B2; format: cell-based, human; details: Table 4 tumor B2: Lung adenocarcinoma (solid tumor); 48 hours with drug
Source text: as §1, §3

Structure (SMILES) | kinetic units (KU) of apoptosis [1] [KU] | kinetic units (KU) of apoptosis [2] [KU] | kinetic units (KU) of apoptosis [3] [KU] | kinetic units (KU) of apoptosis [4] [KU] | kinetic units (KU) of apoptosis [5] [KU] | kinetic units (KU) of apoptosis [6] [KU] | kinetic units (KU) of apoptosis [7] [KU] | kinetic units (KU) of apoptosis [8] [KU] | kinetic units (KU) of apoptosis [9] [KU] | kinetic units (KU) of apoptosis [10] [KU] | kinetic units (KU) of apoptosis [11] [KU] | kinetic units (KU) of apoptosis [12] [KU] | kinetic units (KU) of apoptosis [13] [KU] | kinetic units (KU) of apoptosis [14] [KU] | kinetic units (KU) of apoptosis [15] [KU]
N.N.[Cl][Pt][Cl] [Cisplatin] | 1.00 | 0.50 | 2.10 | 1.75 | 1.00 | 2.80 | 0.80 | 2.10 | 1.50 | 2.20 | 5.40 | 1.31 | 0.00 | 6.40 | 2.20
CC(=O)O[C@@]12CO[C@@H]1C[C@H](O)[C@@]1(C)C(=O)[C@H](O)C3=C(C)[C@@H](OC(=O)[C@H](O)[C@@H](NC(=O)OC(C)(C)C)c4ccccc4)C[C@@](O)([C@@H](OC(=O)c4ccccc4)[C@H]21)C3(C)C [Docetaxel] | 0.70 | 0.20 | 2.00 | 2.65 | 0.50 | 1.10 | 0.90 | 2.30 | 2.60 | 4.20 | 2.10 | 3.20 | 0.90 | 3.20 | 2.40
COc1cccc2c1C(=O)c1c(O)c3c(c(O)c1C2=O)C[C@@](O)(C(=O)CO)C[C@@H]3O[C@H]1C[C@H](N)[C@H](O)[C@H](C)O1 [Doxorubicin] | 1.40 | 1.50 | 0.90 | 2.06 | 1.50 | 3.80 | 1.60 | 1.50 | 1.70 | 3.50 | 0.90 | 1.27 | 0.80 | 1.60 | 3.50
CC(=O)O[C@H]1C(=O)[C@@]2(C)[C@H]([C@H](OC(=O)c3ccccc3)[C@]3(O)C[C@H](OC(=O)[C@H](O)[C@@H](NC(=O)c4ccccc4)c4ccccc4)C(C)=C1C3(C)C)[C@]1(OC(C)=O)CO[C@@H]1C[C@@H]2O [Paclitaxel] | 0.90 | 0.50 | 0.90 | 2.06 | 1.40 | 1.40 | 0.00 | 1.00 | 1.70 | 3.00 | 3.60 | 3.43 | 0.00 | 1.70 | 4.00
